Results: PubChem BioAssay AID588774 (The Scripps Research Institute Molecular Screening Center, 2011)
Activity calls are given as the source filed them.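 How the source made its calls: active means target enzyme inhibited at least 50% at a set dose, and selective over every off-target enzyme by a set factor; inactive means weaker inhibition or too little selectivity.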

How the values were obtained:
[1] = tested on: MW 30 kDa; assay: competitive ABPP of pPAFAH versus proteome hydrolases – biochemical, gel-based, FP-Rh fluorescence, complex proteome, SAR compounds, selectivity assay for pPAFAH inhibitor project, SAR follow-up (AID 588774); settings: stronger effect = higher value;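 on inhibition: 0% = DMSO-only band intensity and 100% = blank gel background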
[2] = biological target: ABHD4 (UniProt Q8VD66); assay: as above; settings: stronger effect = higher value
[3] = as above; settings: at 10 µM
[4] = tested on: FAAH; assay: as above; settings: stronger effect = higher value
[5] = biological target: Monoglyceride lipase (Mus musculus) (UniProt O35678); assay: as above; settings: MAGL, stronger effect = higher value
[6] = tested on: MW 32 kDa; assay: as above; settings: at 1 µM, stronger effect = higher value
[7] = tested on: LYPLA1; assay: as above; settings: stronger effect = higher value
[8] = tested on: pPAFAH; assay: as above; settings: anti-targets inhibited, at 10 µM
[9] = tested on: LYPLA2; assay: as above; settings: stronger effect = higher value
[10] = biological target: Platelet-activating factor acetylhydrolase (Mus musculus) (UniProt Q60963); assay: as above; settings: pPAFAH, stronger effect = higher value
[11] = tested on: ABHD3; assay: as above; settings: stronger effect = higher value
[12] = tested on: ABHD6; assay: as above; settings: stronger effect = higher value

Sequence of Monoglyceride lipase (Mus musculus) (O35678 whole entry, looked up): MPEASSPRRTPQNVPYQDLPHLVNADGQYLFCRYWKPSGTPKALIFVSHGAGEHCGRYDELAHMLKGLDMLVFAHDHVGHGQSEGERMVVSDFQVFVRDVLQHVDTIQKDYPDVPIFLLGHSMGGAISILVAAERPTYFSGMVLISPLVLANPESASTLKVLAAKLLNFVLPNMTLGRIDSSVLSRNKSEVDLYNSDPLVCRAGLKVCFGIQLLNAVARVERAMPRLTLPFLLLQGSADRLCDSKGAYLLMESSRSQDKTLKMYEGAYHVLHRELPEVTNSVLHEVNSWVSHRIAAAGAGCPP
Sequence of Platelet-activating factor acetylhydrolase (Mus musculus) (Q60963 whole entry, looked up): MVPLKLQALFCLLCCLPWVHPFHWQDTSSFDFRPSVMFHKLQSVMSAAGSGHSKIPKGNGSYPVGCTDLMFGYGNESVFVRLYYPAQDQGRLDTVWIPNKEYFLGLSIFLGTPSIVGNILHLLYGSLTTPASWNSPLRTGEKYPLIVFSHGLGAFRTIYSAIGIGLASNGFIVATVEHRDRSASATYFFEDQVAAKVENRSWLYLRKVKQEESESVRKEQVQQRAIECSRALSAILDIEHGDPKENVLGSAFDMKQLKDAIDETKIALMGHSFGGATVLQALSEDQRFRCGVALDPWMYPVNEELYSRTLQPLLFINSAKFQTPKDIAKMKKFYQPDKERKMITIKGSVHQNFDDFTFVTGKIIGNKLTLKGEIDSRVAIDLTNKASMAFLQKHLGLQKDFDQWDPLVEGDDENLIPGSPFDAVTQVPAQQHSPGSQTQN
Sequence of ABHD4 (Q8VD66 whole entry, looked up): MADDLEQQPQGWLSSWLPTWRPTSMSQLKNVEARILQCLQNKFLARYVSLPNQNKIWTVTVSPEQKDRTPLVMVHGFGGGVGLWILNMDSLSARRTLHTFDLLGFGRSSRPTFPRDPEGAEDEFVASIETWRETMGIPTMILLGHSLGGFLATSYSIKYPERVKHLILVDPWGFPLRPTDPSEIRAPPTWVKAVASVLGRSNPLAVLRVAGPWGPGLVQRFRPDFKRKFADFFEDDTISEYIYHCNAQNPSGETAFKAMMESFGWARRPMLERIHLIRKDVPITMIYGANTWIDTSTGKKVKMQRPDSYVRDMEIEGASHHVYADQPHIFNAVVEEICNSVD

With `Cc1cc(N2CCN(C(=O)n3ncc(-c4ccc([N+](=O)[O-])cc4)n3)CC2)c2ccccc2n1` the inhibition ([1]; at 1 µM) was 67%, the inhibition ([2]; at 10 µM) was 100% (inactive) and the inhibition ([2]; inhibition, at 0.1 µM) was 11%. For the same compound, the inhibition ([2]; inhibition, at 1 µM) was 94%, the anti-target count ([3]; ABHD3, anti-targets inhibited) was 9 and the anti-target count ([3]; ABHD4, anti-targets inhibited) was 9. It also gave an anti-target count ([3]; ABHD6, anti-targets inhibited) of 9, an anti-target count ([3]; FAAH, anti-targets inhibited) of 9 and an anti-target count ([3]; LYPLA1, anti-targets inhibited) of 9. The anti-target count ([3]; LYPLA2, anti-targets inhibited) was 9, the anti-target count ([3]; MAGL, anti-targets inhibited) was 9 and the inhibition ([4]; at 10 µM) was 87% (inactive). The inhibition ([4]; inhibition, at 0.1 µM) was 6%, the inhibition ([4]; inhibition, at 1 µM) was 81% and the inhibition ([5]; at 10 µM) was 84% (inactive). For the same compound, the inhibition ([5]; inhibition, at 0.1 µM) was 28%, the inhibition ([5]; inhibition, at 1 µM) was 68% and the inhibition [6] was 59%. For the same compound, the inhibition ([7]; at 10 µM) was 100% (inactive), the inhibition ([7]; inhibition, at 0.1 µM) was 5% and the inhibition ([7]; inhibition, at 1 µM) was 86%. For the same compound, the anti-target count [8] was 9, the inhibition ([9]; at 10 µM) was 100% (inactive) and the inhibition ([9]; inhibition, at 1 µM) was 58%. The inhibition ([10]; at 10 µM) was 99%, the inhibition ([10]; inhibition, at 0.1 µM) was 97% and the inhibition ([10]; inhibition, at 1 µM) was 99%. For the same compound, the inhibition ([11]; at 10 µM) was 100% (inactive), the inhibition ([11]; inhibition, at 0.1 µM) was 11% and the inhibition ([11]; inhibition, at 1 µM) was 94%. The inhibition ([12]; at 10 µM) was 72% (inactive), the inhibition ([12]; inhibition, at 0.1 µM) was 17% and the inhibition ([12]; inhibition, at 1 µM) was 59%.

For `Cc1cc(N2CCN(C(=O)n3ncc(-c4ccccc4)n3)CC2)c2ccccc2n1`, the inhibition ([1]; at 1 µM) was 51%, the inhibition ([2]; at 10 µM) was 100% (inactive) and the inhibition ([2]; inhibition, at 1 µM) was 85%. For the same compound, the anti-target count ([3]; ABHD3, anti-targets inhibited) was 9, the anti-target count ([3]; ABHD4, anti-targets inhibited) was 9 and the anti-target count ([3]; ABHD6, anti-targets inhibited) was 9. The anti-target count ([3]; FAAH, anti-targets inhibited) was 9, the anti-target count ([3]; LYPLA1, anti-targets inhibited) was 9 and the anti-target count ([3]; LYPLA2, anti-targets inhibited) was 9. It also gave an anti-target count ([3]; MAGL, anti-targets inhibited) of 9, an inhibition ([4]; at 10 µM) of 83% and an inhibition ([4]; inhibition, at 0.1 µM) of 63%. The inhibition ([4]; inhibition, at 1 µM) was 82%, the inhibition ([5]; at 10 µM) was 58% (inactive) and the inhibition ([5]; inhibition, at 1 µM) was 36%. The inhibition [6] was 43%, the inhibition ([7]; at 10 µM) was 96% (inactive) and the inhibition ([7]; inhibition, at 1 µM) was 86%. The anti-target count [8] was 9, the inhibition ([9]; at 10 µM) was 99% (inactive) and the inhibition ([9]; inhibition, at 1 µM) was 55%. For the same compound, the inhibition ([10]; at 10 µM) was 99%, the inhibition ([10]; inhibition, at 0.1 µM) was 99% and the inhibition ([10]; inhibition, at 1 µM) was 99%. For the same compound, the inhibition ([11]; at 10 µM) was 100% (inactive), the inhibition ([11]; inhibition, at 1 µM) was 85% and the inhibition ([12]; at 10 µM) was 71% (inactive). For the same compound, the inhibition ([12]; inhibition, at 1 µM) was 54%.

For `Cc1cc(N2CCN(C(=O)n3ncc(-c4ccc(OC(F)(F)F)cc4)n3)CC2)c2ccccc2n1`, the inhibition ([1]; at 1 µM) was 44%, the inhibition ([2]; at 10 µM) was 100% and the inhibition ([2]; inhibition, at 0.1 µM) was 75%. For the same compound, the inhibition ([2]; inhibition, at 1 µM) was 92%, the anti-target count ([3]; ABHD3, anti-targets inhibited) was 9 and the anti-target count ([3]; ABHD4, anti-targets inhibited) was 9. For the same compound, the anti-target count ([3]; ABHD6, anti-targets inhibited) was 9, the anti-target count ([3]; FAAH, anti-targets inhibited) was 9 and the anti-target count ([3]; LYPLA1, anti-targets inhibited) was 9. The anti-target count ([3]; LYPLA2, anti-targets inhibited) was 9, the anti-target count ([3]; MAGL, anti-targets inhibited) was 9 and the inhibition ([4]; at 10 µM) was 92% (inactive). For the same compound, the inhibition ([4]; inhibition, at 0.1 µM) was 38%, the inhibition ([4]; inhibition, at 1 µM) was 91% and the inhibition ([5]; at 10 µM) was 53% (inactive). The inhibition ([5]; inhibition, at 1 µM) was 35%, the inhibition [6] was 43% and the inhibition ([7]; at 10 µM) was 100% (inactive). The inhibition ([7]; inhibition, at 1 µM) was 51%, the anti-target count [8] was 9 and the inhibition ([9]; at 10 µM) was 96% (inactive). It also gave an inhibition ([9]; inhibition, at 1 µM) of 39%, an inhibition ([10]; at 10 µM) of 100% and an inhibition ([10]; inhibition, at 0.1 µM) of 100%. The inhibition ([10]; inhibition, at 1 µM) was 100%, the inhibition ([11]; at 10 µM) was 100% and the inhibition ([11]; inhibition, at 0.1 µM) was 75%. The inhibition ([11]; inhibition, at 1 µM) was 92%, the inhibition ([12]; at 10 µM) was 74% (inactive) and the inhibition ([12]; inhibition, at 0.1 µM) was 22%. It also gave an inhibition ([12]; inhibition, at 1 µM) of 60%.

With `O=C(N1CCOCC1)n1oc2cc(Cl)ccc2c1=O` the inhibition ([1]; at 0.1 µM) was 31%, the inhibition ([1]; at 1 µM) was 43% and the inhibition ([2]; at 10 µM) was 0% (inactive). For the same compound, the anti-target count ([3]; ABHD3, anti-targets inhibited) was 6, the anti-target count ([3]; ABHD4, anti-targets inhibited) was 6 and the anti-target count ([3]; ABHD6, anti-targets inhibited) was 6. It also gave an anti-target count ([3]; FAAH, anti-targets inhibited) of 6, an anti-target count ([3]; LYPLA1, anti-targets inhibited) of 6 and an anti-target count ([3]; LYPLA2, anti-targets inhibited) of 6. The anti-target count ([3]; MAGL, anti-targets inhibited) was 6, the inhibition ([4]; at 10 µM) was 100% and the inhibition ([4]; inhibition, at 0.1 µM) was 83%. The inhibition ([4]; inhibition, at 1 µM) was 96%, the inhibition ([5]; at 10 µM) was 68% (inactive) and the inhibition ([5]; inhibition, at 0.1 µM) was 36%. The inhibition ([5]; inhibition, at 1 µM) was 53%, the inhibition ([7]; at 10 µM) was 81% (inactive) and the inhibition ([7]; inhibition, at 0.1 µM) was 17%. The inhibition ([7]; inhibition, at 1 µM) was 33%, the anti-target count [8] was 6 and the inhibition ([9]; at 10 µM) was 54% (inactive). The inhibition ([9]; inhibition, at 0.1 µM) was 21%, the inhibition ([9]; inhibition, at 1 µM) was 33% and the inhibition ([10]; at 10 µM) was 98%. The inhibition ([10]; inhibition, at 0.1 µM) was 98%, the inhibition ([10]; inhibition, at 1 µM) was 98% and the inhibition ([11]; at 10 µM) was 0% (inactive). For the same compound, the inhibition ([12]; at 10 µM) was 79% (inactive), the inhibition ([12]; inhibition, at 0.1 µM) was 37% and the inhibition ([12]; inhibition, at 1 µM) was 58%.

With `Cc1cc(N2CCN(C(=O)n3ncc(-c4ccc(Cl)c(Cl)c4)n3)CC2)c2ccccc2n1` the inhibition ([1]; at 1 µM) was 36%, the inhibition ([2]; at 10 µM) was 100% and the inhibition ([2]; inhibition, at 0.1 µM) was 69%. For the same compound, the inhibition ([2]; inhibition, at 1 µM) was 96%, the anti-target count ([3]; ABHD3, anti-targets inhibited) was 8 and the anti-target count ([3]; ABHD4, anti-targets inhibited) was 8. The anti-target count ([3]; ABHD6, anti-targets inhibited) was 8, the anti-target count ([3]; FAAH, anti-targets inhibited) was 8 and the anti-target count ([3]; LYPLA1, anti-targets inhibited) was 8. The anti-target count ([3]; LYPLA2, anti-targets inhibited) was 8, the anti-target count ([3]; MAGL, anti-targets inhibited) was 8 and the inhibition ([4]; at 10 µM) was 88% (inactive). For the same compound, the inhibition ([4]; inhibition, at 0.1 µM) was 29%, the inhibition ([4]; inhibition, at 1 µM) was 74% and the inhibition ([5]; at 10 µM) was 40% (inactive). The inhibition ([5]; inhibition, at 1 µM) was 26%, the inhibition [6] was 12% and the inhibition ([7]; at 10 µM) was 84% (inactive). For the same compound, the inhibition ([7]; inhibition, at 1 µM) was 24%, the anti-target count [8] was 8 and the inhibition ([9]; at 10 µM) was 61% (inactive). The inhibition ([9]; inhibition, at 1 µM) was 18%, the inhibition ([10]; at 10 µM) was 100% and the inhibition ([10]; inhibition, at 0.1 µM) was 97%. It also gave an inhibition ([10]; inhibition, at 1 µM) of 98%, an inhibition ([11]; at 10 µM) of 100% and an inhibition ([11]; inhibition, at 0.1 µM) of 69%. The inhibition ([11]; inhibition, at 1 µM) was 96%, the inhibition ([12]; at 10 µM) was 61% (inactive) and the inhibition ([12]; inhibition, at 0.1 µM) was 13%. The inhibition ([12]; inhibition, at 1 µM) was 43%.
